Experimental data published in publication PMC10122656, “Siglec-6 mediates the uptake of extracellular vesicles through a noncanonical glycolipid binding pocket” (Nature Communications, 2023).
“And” between values parts separate entries of the source, which are not always exact repeats. Equal values may be shown once.

Columns and labels:
[1] = tested on: untransfected (UT) CHO cells; test: Cell assay (liposome/EV binding, flow cytometry); format: cell-based, Chinese Hamster; details: UT; 3 mol% ganglioside liposomes; replicates
Description: (§1) Stock lipids (DSPC, Cholesterol, PEG45–DSPE) solutions were prepared by solvating the lipids in chloroform. An appropriate volume of each lipid solution was transferred to a glass test tube to reach the desired mol% of the component. The chloroform was then removed under N2 gas to yield a lipid thin film. Once dry, 100 µL of DMSO was added to the lipid-containing test tube and then the functional lipids (ganglioside, AF647–PEG45–DSPE, Siglec ligand–PEG45–DSPE, pHrodo–PEG45–DSPE, NGL) was added from their respect DMSO stock solution. The lipid mixture was then stored at −80 °C until completely frozen at which point excess DMSO was removed via lyophilization. Dry lipids were then stored at −80 °C until they were extruded. Lipid suppliers can be found in Supplementary Table 4.
(§2) Dry lipids were then hydrated in 1 mL of PBS. The lipids were then sonicated in a bath sonicator in a cycle of 1 min on, 5 min off for a total of five cycles. Liposomes were then extruded using an Avanti mini extruder first using an 800 nm filter and then a 100 nm filter yielding liposomes that were 130 ± 35 nm (Supplementary Table 5) measured using a Malvern Panalytical Zetasizer Nano S. Liposomes were stored at 4 °C.
(§3) 200,000 cells/well were plated into a 96-well U-bottom microplate and centrifuged at 300 × g for 5 min. The cells were then resuspended in 50 µL of 50 µM liposome/50 µg/mL (protein concentration) of EV solution in DMEM F12 5% FBS and incubated at 37 °C for 30 min. Excess liposomes were then removed via centrifuged at 300 × g for 5 min followed by washing the cells with FACS solution. The cells were then resuspended in (1:250 V/V) anti-Siglec-flow buffer (1% V/V FBS, 500 µM, EDTA Hank’s Balanced Salt Solution pH 7.4), solution and left to rest on ice for 30 min. The cells were then centrifuged again at 300 × g for 5 min and the cells were resuspended in FACS buffer solution and were then ready for analysis by flow cytometry. Information regarding antibody clone, catalog number supplier, label isotype, and dilution can be found in Supplementary Table 6. The Siglec-positive cells were gated on for liposome-binding analysis (Supplementary Fig. 1b).
(§4) Flow cytometry measurements were collected on a 5-laser Fortessa X-20 (BD Bioscience). All the resulting data were analyzed using FlowJo (10.5.3) software (BD Biosciences).

WT Siglec-1 CHO cells = target: T1, WT Siglec-1 CHO cells (Homo sapiens, UniProt Q9BZZ2); test: Cell assay (liposome/EV binding, flow cytometry); format: cell-based; set-up: GM1 liposome binding to Siglec-1 CHO cells, flow cytometry (Fig. 1b) / Binding of liposomes with increasing ganglioside content against Siglec-1 CHO cells (Fig. 1c) / Liposome binding to Siglec-1-expressing CHO cells in the cell assay (Fig. 1f): unit not given here; details: for log10(MFI AF647) of GLL relative to log10(MFI AF647) of the same GLL against UT CHO cells (Fig. 2a): Sig-1 WT, 3 mol% ganglioside liposomes; for log10(MFI AF647) of GLL relative to log10(MFI AF647) of the same GLL against UT CHO cells (Fig. 2a) / Binding of liposomes with increasing ganglioside content against Siglec-1 CHO cells (Fig. 1c) / Liposome binding to Siglec-1-expressing CHO cells in the cell assay (Fig. 1f): replicates; for GM1 liposome binding to Siglec-1 CHO cells, flow cytometry (Fig. 1b): 3 mol% GM1 liposomes, technical replicates; for ganglioside content threshold above which GLL binding to Siglec-1 CHO cells decreased: ganglioside titrated in GLLs
T1 construct: expressed in transfected cells
T1 sequence (Q9BZZ2 20-1709): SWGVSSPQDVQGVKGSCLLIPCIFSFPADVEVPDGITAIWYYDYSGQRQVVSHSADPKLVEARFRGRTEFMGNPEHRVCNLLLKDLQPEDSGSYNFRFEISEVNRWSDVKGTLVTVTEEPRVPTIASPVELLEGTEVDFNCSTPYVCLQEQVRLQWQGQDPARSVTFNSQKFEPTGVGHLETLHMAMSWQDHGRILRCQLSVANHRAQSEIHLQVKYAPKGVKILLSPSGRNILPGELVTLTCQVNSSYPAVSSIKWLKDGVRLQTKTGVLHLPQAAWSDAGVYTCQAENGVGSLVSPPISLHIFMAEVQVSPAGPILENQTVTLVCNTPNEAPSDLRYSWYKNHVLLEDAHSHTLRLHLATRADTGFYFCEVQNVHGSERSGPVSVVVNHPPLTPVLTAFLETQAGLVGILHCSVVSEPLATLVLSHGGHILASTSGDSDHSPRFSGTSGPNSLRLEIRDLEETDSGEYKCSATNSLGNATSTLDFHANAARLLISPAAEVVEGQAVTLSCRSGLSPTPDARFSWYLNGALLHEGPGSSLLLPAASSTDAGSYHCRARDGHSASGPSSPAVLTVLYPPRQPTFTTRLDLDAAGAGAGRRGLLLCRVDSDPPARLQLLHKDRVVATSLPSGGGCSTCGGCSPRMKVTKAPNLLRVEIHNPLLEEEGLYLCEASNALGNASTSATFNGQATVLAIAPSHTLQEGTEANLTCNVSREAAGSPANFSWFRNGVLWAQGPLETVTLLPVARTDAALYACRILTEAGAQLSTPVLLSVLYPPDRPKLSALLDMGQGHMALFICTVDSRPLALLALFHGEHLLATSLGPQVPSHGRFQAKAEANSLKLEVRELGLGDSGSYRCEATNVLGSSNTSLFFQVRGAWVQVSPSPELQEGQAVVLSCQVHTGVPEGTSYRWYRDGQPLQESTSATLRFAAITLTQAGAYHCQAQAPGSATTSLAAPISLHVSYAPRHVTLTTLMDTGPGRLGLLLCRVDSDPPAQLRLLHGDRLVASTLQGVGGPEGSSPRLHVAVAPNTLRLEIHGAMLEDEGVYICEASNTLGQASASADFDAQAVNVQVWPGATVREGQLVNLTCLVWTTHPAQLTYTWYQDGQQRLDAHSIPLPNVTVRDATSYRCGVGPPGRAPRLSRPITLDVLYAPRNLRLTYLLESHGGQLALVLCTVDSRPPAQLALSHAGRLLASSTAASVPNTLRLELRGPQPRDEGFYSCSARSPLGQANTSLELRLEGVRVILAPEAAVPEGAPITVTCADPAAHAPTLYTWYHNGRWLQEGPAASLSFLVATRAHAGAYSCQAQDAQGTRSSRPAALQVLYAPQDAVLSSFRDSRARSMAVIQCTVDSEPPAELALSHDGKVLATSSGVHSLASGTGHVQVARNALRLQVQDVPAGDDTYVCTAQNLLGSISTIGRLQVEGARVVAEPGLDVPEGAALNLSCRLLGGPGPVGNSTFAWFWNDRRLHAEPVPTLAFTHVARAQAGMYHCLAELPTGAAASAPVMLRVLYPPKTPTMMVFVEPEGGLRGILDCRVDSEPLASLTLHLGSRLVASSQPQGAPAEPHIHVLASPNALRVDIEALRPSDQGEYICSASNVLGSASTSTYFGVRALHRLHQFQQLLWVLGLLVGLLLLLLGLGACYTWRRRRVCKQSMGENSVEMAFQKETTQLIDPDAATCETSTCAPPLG
Description: as §1, §2, §3, §4

Siglec-5 WT CHO cells = target: T2, Siglec-5 WT CHO cells (Homo sapiens, UniProt O15389); test: Cell assay (liposome/EV binding, flow cytometry); format: cell-based; details: for log10(MFI AF647) of GLL relative to log10(MFI AF647) of the same GLL against UT CHO cells (Fig. 2a): Sig-5 WT†, † after treatment of cells with neuraminidase, 3 mol% ganglioside liposomes, replicates
T2 construct: expressed in transfected cells
T2 sequence (O15389 17-551): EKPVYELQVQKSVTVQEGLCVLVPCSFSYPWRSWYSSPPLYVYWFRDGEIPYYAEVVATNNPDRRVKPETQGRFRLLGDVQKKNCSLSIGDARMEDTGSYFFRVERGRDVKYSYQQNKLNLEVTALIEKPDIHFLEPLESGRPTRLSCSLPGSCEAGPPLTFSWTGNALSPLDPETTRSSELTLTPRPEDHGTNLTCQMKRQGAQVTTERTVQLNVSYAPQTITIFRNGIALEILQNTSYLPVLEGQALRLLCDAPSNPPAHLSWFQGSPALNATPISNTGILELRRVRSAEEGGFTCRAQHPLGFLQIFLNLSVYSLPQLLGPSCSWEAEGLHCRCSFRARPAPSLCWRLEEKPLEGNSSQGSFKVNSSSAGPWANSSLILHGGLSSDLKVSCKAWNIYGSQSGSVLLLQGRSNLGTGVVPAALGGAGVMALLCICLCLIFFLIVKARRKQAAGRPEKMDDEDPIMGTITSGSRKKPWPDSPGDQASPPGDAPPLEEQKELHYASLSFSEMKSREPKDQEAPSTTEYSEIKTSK
Description: as §1, §2, §3, §4
Cells were harvested and resuspended in complete media with either Neuraminidase A or S. The cells were then placed in a 37 °C shaking incubator for 1 h. The cells were then washed with complete media and then the liposome binding assay was performed as described above.

Siglec-1-Fc R116A = test: Ganglioside ELISA; format: binding, human; details: Figure 2c, replicates
Chain of Siglec-1-Fc R116A (Q9BZZ2 20-136 R116A limits assumed): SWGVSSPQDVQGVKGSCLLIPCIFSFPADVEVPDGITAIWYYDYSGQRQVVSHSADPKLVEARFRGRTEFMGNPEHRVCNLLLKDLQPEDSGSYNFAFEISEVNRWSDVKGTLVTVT
Description: Siglec-Fc constructs designed by Rodrigues et al.[30] were used in this work. Siglec-Fc constructs were expressed using WT CHO cells in cell culture media as described above with 1% HEPES. Cells incubated as described above for one-week post confluency. The supernatant was harvested and stored at 4 °C.
The purification was heavily inspired by Rodrigues et al.[30]. The purification of the Siglec-Fcs from supernatant began with Ni^2+ affinity chromatography using an AKTA FPLC equipped with a HisTrap Excel column (GE). The column was equilibrated with fifteen column volumes (CVs) of equilibrium buffer (500 mM NaCl, 20 mM NaPO4H2, pH 7.4). The Siglec-Fc containing supernatant was then loaded in its entirety onto the column. The column was then washed with fifteen CVs of wash buffer (500 mM NaCl, 30 mM imidazole, 20 mM NaPO4H2, pH 7.4). The Siglec-Fc was then eluted in 20 in 1 mL fractions with twenty CVs of elution buffer (500 mM NaCl, 500 mM imidazole, 20 mM NaPO4H2, pH 7.4). […] A Strep-Tactin column (IBA life sciences) was washed with fifteen CVs of buffer W. The Siglec-Fc-buffer W solution was then loaded in its entirety onto the column. […] Fractions containing Siglec-Fc were pooled and dialyzed against PBS to remove any d-Desthiobiotin. After dialysis, Siglec-Fcs were concentrated using an ultra-centrifugal device (30 kDa MWCO) and aliquoted into 5 µg aliquots, and frozen. The Siglec-Fcs were then lyophilized overnight, and the lyophilized Siglec-Fcs were stored at −20 °C.
Our ELISA approach was carried out similarly to previous work by Rapoport[12] and Yamakawa[44]. Ganglioside ethanol solutions (10 µM) were prepared and then transferred in 50 µL increments to a 96-well microplate. The ethanol was removed by drying the plates overnight at room temperature. The plates were then washed with PBS, dried, and then blocked with 5% (m/V) BSA PBS for 1 h. The plates were then washed with PBS and then 2 µg/mL Siglec-Fc precomplexed to Strep-Tactin (2 Siglec-Fc:1 Strep-Tactin monomer) horse radish peroxidase was added to the microplate. The complex was incubated with the plate at room temperature for 2 h. The unbound complexes were then removed by washing in PBS and the plate was developed with Sera care TMB solution. The amount of binding was then quantified by using the background (microplate well with no ligand) subtracted absorbance at 450 nm using a Molecular Devices SpectraMAX ® iD5.

Substance | log10(MFI AF647) of GLL relative to log10(MFI AF647) of the same GLL against UT CHO cells (Fig. 2a) [1] | log10(MFI AF647) of GLL relative to log10(MFI AF647) of the same GLL against UT CHO cells (Fig. 2a) (WT Siglec-1 CHO cells) | log10(MFI AF647) of GLL relative to log10(MFI AF647) of the same GLL against UT CHO cells (Fig. 2a) (Siglec-5 WT CHO cells) | ganglioside ELISA signal, Siglec-1 R (Siglec-1-Fc R116A) | Binding of liposomes with increasing ganglioside content against Siglec-1 CHO cells (Fig. 1c) (WT Siglec-1 CHO cells; 0.0187 Ligand/nm2) | Binding of liposomes with increasing ganglioside content against Siglec-1 CHO cells (Fig. 1c) (WT Siglec-1 CHO cells; 0.056 Ligand/nm2) | Binding of liposomes with increasing ganglioside content against Siglec-1 CHO cells (Fig. 1c) (WT Siglec-1 CHO cells; 0.0933 Ligand/nm2) | Binding of liposomes with increasing ganglioside content against Siglec-1 CHO cells (Fig. 1c) (WT Siglec-1 CHO cells; 0.373 Ligand/nm2) | ganglioside content threshold above which GLL binding to Siglec-1 CHO cells decreased (WT Siglec-1 CHO cells) | further results
GD3 | 0.01 (2×) and -0.01 (2×) | 0.41 (3×) and 0.45 | 0.28 and 0.26 and 0.19 | 0.22 and 0.18 and 0.24 and 0.28 | – | – | – | – | – | –
GM1 | 0.07 and -0.03 (2×) and -0.01 | 0.34 and 0.29 and 0.27 and 0.31 | 0.35 (2×) and 0.26 | 0.07 and 0.08 and 0.1 and 0.14 | 0.02 | 0.26 and 0.28 and 0.27 (2×) | 0.26 and 0.25 and 0.27 and 0.28 | 0.08 (3×) and 0.07 | 1–3 mol% | Binding of liposomes with increasing ganglioside content against Siglec-1 CHO cells (Fig. 1c) (WT Siglec-1 CHO cells; 0.0373 Ligand/nm2): 0.13 (2×) and 0.12 (2×); Binding of liposomes with increasing ganglioside content against Siglec-1 CHO cells (Fig. 1c) (WT Siglec-1 CHO cells; 0.187 Ligand/nm2): 0.19 and 0.18 (2×) and 0.16; Liposome binding to Siglec-1-expressing CHO cells in the cell assay (Fig. 1f) (WT Siglec-1 CHO cells; 3% glycolipid in liposome): 926 and 882 and 896; GM1 liposome binding to Siglec-1 CHO cells, flow cytometry (Fig. 1b) (WT Siglec-1 CHO cells; 0.2 mol% PEG45–DSPE): 1640 and 1691 and 1719 and 1798; GM1 liposome binding to Siglec-1 CHO cells, flow cytometry (Fig. 1b) (WT Siglec-1 CHO cells; 0.5 mol% PEG45–DSPE): 1529 and 1675 and 1687 and 1576 and 1551; GM1 liposome binding to Siglec-1 CHO cells, flow cytometry (Fig. 1b) (WT Siglec-1 CHO cells; 1 mol% PEG45–DSPE): 687 and 675 and 684 and 712 and 741; GM1 liposome binding to Siglec-1 CHO cells, flow cytometry (Fig. 1b) (WT Siglec-1 CHO cells; 2 mol% PEG45–DSPE): 106 and 105 and 107 and 111 and 113; GM1 liposome binding to Siglec-1 CHO cells, flow cytometry (Fig. 1b) (WT Siglec-1 CHO cells; 5 mol% PEG45–DSPE): 79 and 80 and 82 and 81; Liposome binding to Siglec-1-expressing CHO cells in the cell assay (Fig. 1f) (WT Siglec-1 CHO cells; 20% glycolipid in liposome): 316 and 299 and 296; binding to WT Siglec-1 CHO cells (in words) (WT Siglec-1 CHO cells; cell assay): No differences in binding; GLL binding to Siglec-5 (in words) (Siglec-5 WT CHO cells; cell assay, optimized liposomal formulation): novel interactions were observed
GM2 | 0.1 and 0.05 (2×) and 0.06 | 1.23 and 1.19 and 1.21 and 1.2 | 0.12 and 0.11 and 0.15 | 0.07 and 0.09 and 0.15 and 0.11 | 1.01 and 0.97 and 1 and 1.02 | 0.8 and 0.79 and 0.78 (2×) | 0.59 and 0.57 and 0.55 (2×) | 0.24 and 0.22 (3×) | 1–3 mol% | Binding of liposomes with increasing ganglioside content against Siglec-1 CHO cells (Fig. 1c) (WT Siglec-1 CHO cells; 0.00187 Ligand/nm2): -0.01; Binding of liposomes with increasing ganglioside content against Siglec-1 CHO cells (Fig. 1c) (WT Siglec-1 CHO cells; 0.00933 Ligand/nm2): 0.11 (2×) and 0.13 and 0.16
